Source: patent US20260347364A1, “PYRAZOLO[4,3-F]QUINAZOLINE DERIVATIVES AS MODULATORS OF G12D MUTANT KRAS USEFUL FOR THE TREATMENT OF CANCER” (JAZZ PHARMACEUTICALS IRELAND LTD., priority 2023, published 2026)

Legend:
KRAS G12D = target: T1, KRAS G12D (Homo sapiens, UniProt P01116, G12D); assay: HTRF nucleotide exchange assay, KRAS G12D; assay type: biochemical; conditions: HTRF nucleotide exchange assay (NEA), class symbols
T1 construct: aa1-188 KRAS WT, HRAS WT, NRAS WT, or KRAS containing the G12D
T1 sequence (P01116 1-188 isoform P01116-2 G12D): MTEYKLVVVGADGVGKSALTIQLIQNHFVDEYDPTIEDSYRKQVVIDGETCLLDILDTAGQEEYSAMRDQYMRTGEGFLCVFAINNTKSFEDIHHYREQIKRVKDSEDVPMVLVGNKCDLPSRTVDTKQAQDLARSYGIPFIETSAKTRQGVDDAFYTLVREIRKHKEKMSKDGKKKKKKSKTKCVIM

KRAS WT = target: T2, KRAS WT (Homo sapiens, UniProt P01116); assay: HTRF nucleotide exchange assay, KRAS WT; assay type: biochemical; conditions: class symbols; for IC50: HTRF nucleotide exchange assay (NEA)
T2 construct: aa1-188 KRAS WT
T2 sequence (P01116 1-188 isoform P01116-2): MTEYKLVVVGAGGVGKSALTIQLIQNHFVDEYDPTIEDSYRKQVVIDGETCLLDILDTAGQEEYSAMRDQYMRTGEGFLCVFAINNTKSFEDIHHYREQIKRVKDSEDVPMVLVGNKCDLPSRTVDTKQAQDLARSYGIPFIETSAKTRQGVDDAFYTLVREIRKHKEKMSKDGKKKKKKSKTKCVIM

| Compound | IC50 (KRAS G12D) [nM] | IC50 (KRAS WT) [nM] | KRAS^WT NEA (KRAS WT) |
| --- | --- | --- | --- |
| CCc1c(F)ccc2cc(O)cc(-c3cc4nc(OC[C@@]56CCCN5C[C@H](F)C6)nc(N5CCCC5CO)c4c4cn(C)nc34)c12 (stereo partly drawn) [Example 183, 5-ethyl-6-fluoro-4-[9-[2-(hydroxymethyl)pyrrolidin-1-yl]-2-methyl-7-[[(2R,8S)-2-fluoro-1,2,3,5,6,7-hexahydropyrrolizin-8-yl]methoxy]pyrazolo[4,3-f]quinazolin-4-yl]naphthalen-2-ol] | ≤ 10 | ≤ 10 |  |
| CCc1c(F)ccc2cc(O)cc(-c3cc4nc(OC[C@@]56CCCN5C[C@H](F)C6)nc(N5CCC(C)C(O)C5)c4c4cn(C)nc34)c12 (stereo partly drawn) [Example 133, 1-[4-(8-ethyl-7-fluoro-3-hydroxy-1-naphthyl)-2-methyl-7-[[(2R,8S)-2-fluoro-1,2,3,5,6,7-hexahydropyrrolizin-8-yl]methoxy]pyrazolo[4,3-f]quinazolin-9-yl]-4-methyl-piperidin-3-ol] | 10 to 100 | 100 to 10000 |  |
| CCc1c(F)ccc2cc(O)cc(-c3c(F)c4nc(OCC5(C#N)CCOC5)nc(N5CCCNC(=O)C5)c4c4cn(C)nc34)c12 (stereo not drawn) [Example 244, 3-[[4-(8-ethyl-7-fluoro-3-hydroxy-1-naphthyl)-5-fluoro-2-methyl-9-(3-oxo-1,4-diazepan-1-yl)pyrazolo[4,3-f]quinazolin-7-yl]oxymethyl]tetrahydrofuran-3-carbonitrile] | 100 to 10000 | 100 to 10000 |  |
| CCc1c(F)ccc2cc(O)cc(-c3cc4nc(OC[C@@]56CCCN5C[C@H](F)C6)nc(N5CCNCC5)c4c4cn(C)nc34)c12 [Example 13, 5-ethyl-6-fluoro-4-[2-methyl-9-piperazin-1-yl-7-[[(2R,8S)-2-fluoro-1,2,3,5,6,7-hexahydropyrrolizin-8-yl]methoxy]pyrazolo[4,3-f]quinazolin-4-yl]naphthalen-2-ol] | 10 to 100 | 100 to 10000 |  |
| CCc1c(F)ccc2cc(O)cc(-c3c(F)c4nc(OCC5(C)C[C@@H](O)CN5C)nc(N5CCOCC(C)(O)C5)c4c4cn(C)nc34)c12 (mixture of isomers) [Example 153, 4-[4-(8-ethyl-7-fluoro-3-hydroxy-1-naphthyl)-5-fluoro-2-methyl-7-[[rac-(4R)-4-hydroxy-1,2-dimethyl-pyrrolidin-2-yl]methoxy]pyrazolo[4,3-f]quinazolin-9-yl]-6-methyl-1,4-oxazepan-6-ol] | ≤ 10 | ≤ 10 |  |
| CCc1c(F)ccc2cc(O)cc(-c3c(F)c4nc(OCC5(CN6CCC(OC)CC6)CC5)nc(N5CCOCC(C)(O)C5)c4c4cn(C)nc34)c12 (stereo not drawn) [Example 187, 4-[4-(8-ethyl-7-fluoro-3-hydroxy-1-naphthyl)-5-fluoro-7-[[1-[(4-methoxy-1-piperidyl)methyl]cyclopropyl]methoxy]-2-methyl-pyrazolo[4,3-f]quinazolin-9-yl]-6-methyl-1,4-oxazepan-6-ol] | ≤ 10 | ≤ 10 |  |
| CCc1c(F)ccc2cc(O)cc(-c3c(F)c4nc(OCC5(CN(C)C)CC5)nc(N5CCOCC(C)(O)C5)c4c4cn(C)nc34)c12 (stereo not drawn) [Example 157, 4-[7-[[1-[(dimethylamino)methyl]cyclopropyl]methoxy]-4-(8-ethyl-7-fluoro-3-hydroxy-1-naphthyl)-5-fluoro-2-methyl-pyrazolo[4,3-f]quinazolin-9-yl]-6-methyl-1,4-oxazepan-6-ol] | ≤ 10 | ≤ 10 |  |
| CCc1c(F)ccc2cc(O)cc(-c3c(F)c4nc(OCC5(CN6CC7CC7C6)CC5)nc(N5CCOCC(C)(O)C5)c4c4cn(C)nc34)c12 (stereo not drawn) [Example 221, 4-[7-[[1-(3-azabicyclo[3.1.0]hexan-3-ylmethyl)cyclopropyl]methoxy]-4-(8-ethyl-7-fluoro-3-hydroxy-1-naphthyl)-5-fluoro-2-methyl-pyrazolo[4,3-f]quinazolin-9-yl]-6-methyl-1,4-oxazepan-6-ol] | ≤ 10 | ≤ 10 |  |
| CCc1c(F)ccc2cc(O)cc(-c3c(F)c4nc(OC[C@@]56CCCN5C[C@H](F)C6)nc(N5CCCn6nc(C(=O)N7CCOCC7)cc6C5)c4c4cn(C)nc34)c12 [Example 195, [5-[4-(8-ethyl-7-fluoro-3-hydroxy-1-naphthyl)-5-fluoro-7-[[(2R,8S)-2-fluoro-1,2,3,5,6,7-hexahydropyrrolizin-8-yl]methoxy]-2-methyl-pyrazolo[4,3-f]quinazolin-9-yl]-4,6,7,8-tetrahydropyrazolo[1,5-a][1,4]diazepin-2-yl]-morpholino-methanone] | ≤ 10 | ≤ 10 |  |
| CCc1c(F)ccc2cc(O)cc(-c3c(F)c4nc(OCC5(CN6CCC(F)(F)C6)CC5)nc(N5CCOCC(C)(O)C5)c4c4cn(C)nc34)c12 (stereo not drawn) [Example 189, 4-[7-[[1-[(3,3-difluoropyrrolidin-1-yl)methyl]cyclopropyl]methoxy]-4-(8-ethyl-7-fluoro-3-hydroxy-1-naphthyl)-5-fluoro-2-methyl-pyrazolo[4,3-f]quinazolin-9-yl]-6-methyl-1,4-oxazepan-6-ol] | 10 to 100 | 10 to 100 |  |
| CCc1c(F)ccc2cc(O)cc(-c3c(F)c4nc(OCC5(CN6CCCC6)CC5)nc(N5CCC[C@@](C)(O)C5)c4c4cn(C)nc34)c12 [Example 202, (3R)-1-[4-(8-ethyl-7-fluoro-3-hydroxy-1-naphthyl)-5-fluoro-2-methyl-7-[[1-(pyrrolidin-1-ylmethyl)cyclopropyl]methoxy]pyrazolo[4,3-f]quinazolin-9-yl]-3-methyl-piperidin-3-ol] | ≤ 10 | ≤ 10 |  |
| CCc1c(F)ccc2cc(O)cc(-c3c(F)c4nc(OCC5(CN6CC(C)OC(C)C6)CC5)nc(N5CCOCC(C)(O)C5)c4c4cn(C)nc34)c12 (stereo not drawn) [Example 246, 4-[7-[[1-[(2,6-dimethylmorpholin-4-yl)methyl]cyclopropyl]methoxy]-4-(8-ethyl-7-fluoro-3-hydroxy-1-naphthyl)-5-fluoro-2-methyl-pyrazolo[4,3-f]quinazolin-9-yl]-6-methyl-1,4-oxazepan-6-ol] | ≤ 10 | ≤ 10 |  |
| Cn1cc2c(n1)c(-c1cccc3sc(N)c(C#N)c13)cc1nc(OC[C@@]34CCCN3C[C@H](F)C4)nc(N3CC4CCC(C3)N4)c12 [Example 86, 2-amino-4-[9-(3,8-diazabicyclo[3.2.1]octan-3-yl)-7-[[(2R,8S)-2-fluoro-1,2,3,5,6,7-hexahydropyrrolizin-8-yl]methoxy]-2-methyl-pyrazolo[4,3-f]quinazolin-4-yl]benzothiophene-3-carbonitrile] | ≤ 10 |  | D (<49% inhibition at 10 μM) |

The next lines start with the values.

| IC50 (KRAS G12D) [nM] | IC50 (KRAS WT) [nM] | KRAS^WT NEA (KRAS WT) | Compound |
| --- | --- | --- | --- |
| ≤ 10 | ≤ 10 |  | CCc1c(F)ccc2cc(O)cc(-c3c(F)c4nc(OC[C@@]56CCCN5C[C@H](F)C6)nc(N5CCC[C@@H](O)C5)c4c4cn(C)nc34)c12 [Example 178, (3R)-1-[4-(8-ethyl-7-fluoro-3-hydroxy-1-naphthyl)-5-fluoro-2-methyl-7-[[(2R,8S)-2-fluoro-1,2,3,5,6,7-hexahydropyrrolizin-8-yl]methoxy]pyrazolo[4,3-f]quinazolin-9-yl]piperidin-3-ol] |
| ≤ 10 | ≤ 10 |  | CCc1c(F)ccc2cc(O)cc(-c3cc4nc(OC[C@@]56CCCN5C[C@H](F)C6)nc(N5CC6C(=O)NC(=O)C6C5)c4c4cn(C)nc34)c12 (stereo partly drawn) [Example 17, 5-[4-(8-ethyl-7-fluoro-3-hydroxy-1-naphthyl)-2-methyl-7-[[(2R,8S)-2-fluoro-1,2,3,5,6,7-hexahydropyrrolizin-8-yl]methoxy]pyrazolo[4,3-f]quinazolin-9-yl]-3a,4,6,6a-tetrahydropyrrolo[3,4-c]pyrrole-1,3-dione] |
| ≤ 10 | 100 to 10000 |  | CCc1c(F)ccc2cc(O)cc(-c3c(F)c4nc(OCC5(C#N)CCOC5)nc(N5CC6CCC(C5)N6)c4c4cn(C)nc34)c12 (stereo not drawn) [Example 168, 3-[[9-(3,8-diazabicyclo[3.2.1]octan-3-yl)-4-(8-ethyl-7-fluoro-3-hydroxy-1-naphthyl)-5-fluoro-2-methyl-pyrazolo[4,3-f]quinazolin-7-yl]oxymethyl]tetrahydrofuran-3-carbonitrile] |
| ≤ 10 | ≤ 10 |  | CCc1c(F)ccc2cc(O)cc(-c3cc4nc(OC[C@@]56CCCN5C[C@H](F)C6)nc(N5CCCn6nc(C(=O)N(C)C)cc6C5)c4c4cn(C)nc34)c12 [Example 22, 5-[4-(8-ethyl-7-fluoro-3-hydroxy-1-naphthyl)-2-methyl-7-[[(2R,8S)-2-fluoro-1,2,3,5,6,7-hexahydropyrrolizin-8-yl]methoxy]pyrazolo[4,3-f]quinazolin-9-yl]-N,N-dimethyl-4,6,7,8-tetrahydropyrazolo[1,5-a][1,4-]diazepine-2-carboxamide] |
| ≤ 10 | ≤ 10 |  | CCc1c(F)ccc2cc(O)cc(-c3cc4nc(OC[C@@]56CCCN5C[C@H](F)C6)nc(N5CCCn6nc(C(=O)N(C)C)c(F)c6C5)c4c4cn(C)nc34)c12 [Example 103] |
| ≤ 10 | 10 to 100 |  | CCc1c(F)ccc2cc(O)cc(-c3cc4nc(OC[C@@]56CCCN5C[C@H](F)C6)nc(N5CCCn6nc(C)cc6C5)c4c4cn(C)nc34)c12 [Example 72] |
| ≤ 10 | ≤ 10 |  | CCc1c(F)ccc2cc(O)cc(-c3c(F)c4nc(OCC56CCCN5CCC6)nc(N5CCC[C@@](C)(O)C5)c4c4cn(C)nc34)c12 [Example 203, (3R)-1-[4-(8-ethyl-7-fluoro-3-hydroxy-1-naphthyl)-5-fluoro-7-(1,2,3,5,6,7-hexahydropyrrolizin-8-ylmethoxy)-2-methyl-pyrazolo[4,3-f]quinazolin-9-yl]-3-methyl-piperidin-3-ol] |
| ≤ 10 | 100 to 10000 |  | CCc1c(F)ccc2cc(O)cc(-c3c(C)c4nc(OCC5(CO)CC5)nc(N5CC6CCC(C5)N6)c4c4cn(C)nc34)c12 [Example 242, 4-[9-(3,8-diazabicyclo[3.2.1]octan-3-yl)-7-[[1-(hydroxymethyl)cyclopropyl]methoxy]-2,5-dimethyl-pyrazolo[4,3-f]quinazolin-4-yl]-5-ethyl-6-fluoro-naphthalen-2-ol] |
